Reference: ChEMBL document CHEMBL1201862, “PubChem BioAssay data set” (2004)
Active and inactive are the calls of the source.

How the values were obtained:
Hexokinase = Hexokinase (Trypanosoma brucei, UniProt Q38C41); assay: Confirmation assay for inhibitors of Trypanosoma brucei hexokinase 1-Analogue-first series. [Related pubchem assays (depositor defined):AID1430, AID1632, AID2516, AID2560, AID2579, AID2600, AID449725, AID492951]; assay type: functional
[1] = molecular target: T1, G-protein coupled receptor 35 (Homo sapiens, UniProt Q9HC97); assay: SAR analysis of Agonists of the GPR35 Receptor using an Image-Based Assay - Set 2. [Related pubchem assays (depositor defined):AID2013, AID2026]; assay type: functional
T1 sequence (Q9HC97 whole entry): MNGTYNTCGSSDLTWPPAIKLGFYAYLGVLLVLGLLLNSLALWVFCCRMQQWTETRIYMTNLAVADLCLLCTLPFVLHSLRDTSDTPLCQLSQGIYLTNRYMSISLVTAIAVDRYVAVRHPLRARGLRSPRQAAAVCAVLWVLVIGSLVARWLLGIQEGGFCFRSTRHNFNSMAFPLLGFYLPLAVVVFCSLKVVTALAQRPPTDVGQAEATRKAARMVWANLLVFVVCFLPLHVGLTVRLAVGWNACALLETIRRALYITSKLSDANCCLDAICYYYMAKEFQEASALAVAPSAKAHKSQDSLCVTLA

[2] = molecular target: T2, G-protein coupled receptor 55 (Homo sapiens, UniProt Q9Y2T6); assay: GPR55 antagonists blocking LPI-driven arrestin recruitment, primary screen, imaging, U2OS, beta-arrestin-GFP, LPI agonist (AID 2013); assay type: functional;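 note: antagonist potency measured as reduced agonist-driven arrestin aggregation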
T2 sequence (Q9Y2T6 whole entry): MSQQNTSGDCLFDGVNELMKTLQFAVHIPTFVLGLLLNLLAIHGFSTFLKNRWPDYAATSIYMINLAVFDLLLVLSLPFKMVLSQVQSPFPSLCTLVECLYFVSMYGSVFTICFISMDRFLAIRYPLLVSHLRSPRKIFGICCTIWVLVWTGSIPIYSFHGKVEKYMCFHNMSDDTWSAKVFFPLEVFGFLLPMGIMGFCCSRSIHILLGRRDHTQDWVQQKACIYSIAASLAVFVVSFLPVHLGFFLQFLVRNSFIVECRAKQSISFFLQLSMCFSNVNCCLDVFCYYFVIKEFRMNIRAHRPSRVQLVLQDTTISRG

[3] = molecular target: T3, Microphthalmia-associated transcription factor (Homo sapiens, UniProt O75030); assay: TRPM1 promoter luciferase signal decrease, dose response, MITF inhibitor project, cell-based, SK-MEL-5, cherry-picked, set 3 (AID 493073); assay type: functional
T3 sequence (O75030 whole entry): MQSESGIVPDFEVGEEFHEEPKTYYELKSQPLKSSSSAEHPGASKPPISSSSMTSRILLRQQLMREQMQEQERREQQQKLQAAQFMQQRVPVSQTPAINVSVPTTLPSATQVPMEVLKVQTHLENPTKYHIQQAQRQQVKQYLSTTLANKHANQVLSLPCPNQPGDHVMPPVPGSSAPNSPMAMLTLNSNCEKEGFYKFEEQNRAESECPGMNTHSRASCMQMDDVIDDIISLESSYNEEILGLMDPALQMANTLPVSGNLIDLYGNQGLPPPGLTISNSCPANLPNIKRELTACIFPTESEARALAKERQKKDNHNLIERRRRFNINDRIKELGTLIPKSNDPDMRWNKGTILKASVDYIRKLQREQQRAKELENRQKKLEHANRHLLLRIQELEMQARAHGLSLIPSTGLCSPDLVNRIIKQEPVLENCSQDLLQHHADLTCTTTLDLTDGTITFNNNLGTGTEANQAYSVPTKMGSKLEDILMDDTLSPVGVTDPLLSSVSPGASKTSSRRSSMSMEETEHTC

[4] = molecular target: T2, G-protein coupled receptor 55; assay: GPR55 antagonist potency of analogs, SAR follow-up, imaging, U2OS, beta-arrestin-GFP, LPI agonist, set 2 (AID 2820); assay type: functional
Cannabinoid receptor 2 [5] = molecular target: T4, Cannabinoid receptor 2 (Homo sapiens, UniProt P34972); assay: SAR analysis of agonists of the Cannabinoid Receptor 2 using an Image-Based Assay. [Related pubchem assays (depositor defined):AID2013, AID2026]; assay type: functional
T4 sequence (P34972 whole entry): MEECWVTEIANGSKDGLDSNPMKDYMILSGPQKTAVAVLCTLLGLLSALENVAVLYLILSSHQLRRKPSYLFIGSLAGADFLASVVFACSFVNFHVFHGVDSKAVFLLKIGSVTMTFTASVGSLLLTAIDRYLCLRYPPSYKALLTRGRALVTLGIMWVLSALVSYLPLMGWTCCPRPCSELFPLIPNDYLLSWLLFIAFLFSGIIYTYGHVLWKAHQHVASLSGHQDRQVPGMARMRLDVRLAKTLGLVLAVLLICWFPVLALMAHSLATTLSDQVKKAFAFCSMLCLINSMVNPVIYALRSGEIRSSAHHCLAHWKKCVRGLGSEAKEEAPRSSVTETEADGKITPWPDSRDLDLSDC

Cannabinoid receptor 2 [6] = molecular target: T4, Cannabinoid receptor 2; assay: SAR analysis of antagonists of the Cannabinoid Receptor 2 using an Image-Based Assay. [Related pubchem assays (depositor defined):AID2013, AID2026]; assay type: functional
[7] = molecular target: T1, G-protein coupled receptor 35; assay: SAR analysis of Antagonists of the GPR35 Receptor using an Image-Based Assay - Set 3. [Related pubchem assays (depositor defined):AID2013, AID2026]; assay type: functional
Cannabinoid receptor 1 [8] = molecular target: T5, Cannabinoid receptor 1 (Homo sapiens, UniProt P21554); assay: SAR analysis of antagonists of the Cannabinoid Receptor 1 using an Image-Based Assay - Set 2. [Related pubchem assays (depositor defined):AID2013, AID2026]; assay type: functional
T5 sequence (P21554 whole entry): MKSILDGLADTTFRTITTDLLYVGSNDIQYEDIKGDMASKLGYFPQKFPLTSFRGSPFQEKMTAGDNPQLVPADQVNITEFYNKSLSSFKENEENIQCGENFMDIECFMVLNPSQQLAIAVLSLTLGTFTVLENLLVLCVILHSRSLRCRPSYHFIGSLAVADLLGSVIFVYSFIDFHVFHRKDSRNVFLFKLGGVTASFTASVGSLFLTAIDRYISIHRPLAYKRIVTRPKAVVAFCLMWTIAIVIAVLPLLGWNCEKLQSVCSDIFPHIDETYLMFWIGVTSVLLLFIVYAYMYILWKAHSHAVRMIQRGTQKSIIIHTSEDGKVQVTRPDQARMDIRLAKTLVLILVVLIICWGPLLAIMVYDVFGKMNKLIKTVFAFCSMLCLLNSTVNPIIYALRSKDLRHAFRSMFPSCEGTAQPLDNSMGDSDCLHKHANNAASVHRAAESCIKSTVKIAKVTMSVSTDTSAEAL

A-375 = assay: MITF: Counter assay: A375 proliferation Measured in Cell-Based System Using Plate Reader - 2084-03_Inhibitor_Dose_DryPowder_Activity. [Related pubchem assays (depositor defined):AID488944]; assay type: functional; conditions: Homo sapiens
Cannabinoid receptor 1 [9] = molecular target: T5, Cannabinoid receptor 1; assay: SAR analysis of agonists of the Cannabinoid Receptor 1 using an Image-Based Assay - Set 2. [Related pubchem assays (depositor defined):AID2013, AID2026]; assay type: functional
[10] = molecular target: DNA damage-inducible transcript 3 protein (Mus musculus, UniProt P35639); assay type: functional, Cricetulus griseus
Melanocortin receptor 4 = Melanocortin receptor 4 (Homo sapiens, UniProt P32245); assay type: functional, cell-based;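 note: Cell-based assay with luminescence read-out, confirmatory dose-response testing for agonist activity of biased ligands at MC4R; human U2OS cells with tagged receptor and beta-arrestin; potency of agonists that increase receptor coupling to beta-arrestin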
[11] = molecular target: Voltage-dependent T-type calcium channel subunit alpha-1H (Homo sapiens, UniProt O95180); assay: Cav3.2 T-type channel inhibitors, synthesized analogs, SAR follow-up, cell-based, synthetic library set 2, HEK293 HH8, Fluo-4 (AID 493023); assay type: functional
[12] = THP-1 cell cytotoxicity, dose response, cytotoxicity control for non-replicating M. tuberculosis project (AID 489025); assay type: functional
cells = assay type: functional
[13] = Vero E6 cell cytotoxicity, dose response, cytotoxicity control for non-replicating M. tuberculosis project, secondary assay (AID 492998); assay type: functional, VeroE6; conditions: Vero C1008
fMet-Leu-Phe receptor = fMet-Leu-Phe receptor (Homo sapiens, UniProt P21462); assay: FPR ligands, dose response (AID 519); assay type: functional
Chain of fMet-Leu-Phe receptor (P21462 whole entry): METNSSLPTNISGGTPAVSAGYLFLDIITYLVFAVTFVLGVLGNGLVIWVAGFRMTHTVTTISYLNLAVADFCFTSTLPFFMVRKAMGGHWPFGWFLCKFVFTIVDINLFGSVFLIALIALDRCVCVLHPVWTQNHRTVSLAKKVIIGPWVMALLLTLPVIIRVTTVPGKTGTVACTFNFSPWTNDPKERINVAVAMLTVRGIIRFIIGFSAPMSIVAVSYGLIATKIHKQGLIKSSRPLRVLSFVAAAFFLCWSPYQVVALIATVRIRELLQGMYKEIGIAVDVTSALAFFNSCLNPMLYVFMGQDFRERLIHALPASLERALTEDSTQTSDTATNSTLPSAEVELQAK

Genome polyprotein = Genome polyprotein (dengue virus type 2, UniProt P29990); assay: Dengue-2 NS5 methyltransferase inhibitors, primary screen, biochemical, confirmation dose response (AID 588689); assay type: functional
Vero = Vero cell cytotoxicity, cytotoxicity control for flavivirus capping enzyme inhibitors (AID 588742); assay type: functional; conditions: Chlorocebus sabaeus
Fatty acid synthase [14] = molecular target: T6, Fatty acid synthase (Homo sapiens, UniProt P49327); assay: FAS thioesterase domain inhibitors, dose response, biochemical, endpoint fluorescence intensity, uHTS hits (AID 624327); assay type: functional;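 note: fluorescence from hydrolysis of an O-methyl fluorescein acyl ester substrate by the enzyme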
T6 sequence (P49327 whole entry, the tested form may be a part): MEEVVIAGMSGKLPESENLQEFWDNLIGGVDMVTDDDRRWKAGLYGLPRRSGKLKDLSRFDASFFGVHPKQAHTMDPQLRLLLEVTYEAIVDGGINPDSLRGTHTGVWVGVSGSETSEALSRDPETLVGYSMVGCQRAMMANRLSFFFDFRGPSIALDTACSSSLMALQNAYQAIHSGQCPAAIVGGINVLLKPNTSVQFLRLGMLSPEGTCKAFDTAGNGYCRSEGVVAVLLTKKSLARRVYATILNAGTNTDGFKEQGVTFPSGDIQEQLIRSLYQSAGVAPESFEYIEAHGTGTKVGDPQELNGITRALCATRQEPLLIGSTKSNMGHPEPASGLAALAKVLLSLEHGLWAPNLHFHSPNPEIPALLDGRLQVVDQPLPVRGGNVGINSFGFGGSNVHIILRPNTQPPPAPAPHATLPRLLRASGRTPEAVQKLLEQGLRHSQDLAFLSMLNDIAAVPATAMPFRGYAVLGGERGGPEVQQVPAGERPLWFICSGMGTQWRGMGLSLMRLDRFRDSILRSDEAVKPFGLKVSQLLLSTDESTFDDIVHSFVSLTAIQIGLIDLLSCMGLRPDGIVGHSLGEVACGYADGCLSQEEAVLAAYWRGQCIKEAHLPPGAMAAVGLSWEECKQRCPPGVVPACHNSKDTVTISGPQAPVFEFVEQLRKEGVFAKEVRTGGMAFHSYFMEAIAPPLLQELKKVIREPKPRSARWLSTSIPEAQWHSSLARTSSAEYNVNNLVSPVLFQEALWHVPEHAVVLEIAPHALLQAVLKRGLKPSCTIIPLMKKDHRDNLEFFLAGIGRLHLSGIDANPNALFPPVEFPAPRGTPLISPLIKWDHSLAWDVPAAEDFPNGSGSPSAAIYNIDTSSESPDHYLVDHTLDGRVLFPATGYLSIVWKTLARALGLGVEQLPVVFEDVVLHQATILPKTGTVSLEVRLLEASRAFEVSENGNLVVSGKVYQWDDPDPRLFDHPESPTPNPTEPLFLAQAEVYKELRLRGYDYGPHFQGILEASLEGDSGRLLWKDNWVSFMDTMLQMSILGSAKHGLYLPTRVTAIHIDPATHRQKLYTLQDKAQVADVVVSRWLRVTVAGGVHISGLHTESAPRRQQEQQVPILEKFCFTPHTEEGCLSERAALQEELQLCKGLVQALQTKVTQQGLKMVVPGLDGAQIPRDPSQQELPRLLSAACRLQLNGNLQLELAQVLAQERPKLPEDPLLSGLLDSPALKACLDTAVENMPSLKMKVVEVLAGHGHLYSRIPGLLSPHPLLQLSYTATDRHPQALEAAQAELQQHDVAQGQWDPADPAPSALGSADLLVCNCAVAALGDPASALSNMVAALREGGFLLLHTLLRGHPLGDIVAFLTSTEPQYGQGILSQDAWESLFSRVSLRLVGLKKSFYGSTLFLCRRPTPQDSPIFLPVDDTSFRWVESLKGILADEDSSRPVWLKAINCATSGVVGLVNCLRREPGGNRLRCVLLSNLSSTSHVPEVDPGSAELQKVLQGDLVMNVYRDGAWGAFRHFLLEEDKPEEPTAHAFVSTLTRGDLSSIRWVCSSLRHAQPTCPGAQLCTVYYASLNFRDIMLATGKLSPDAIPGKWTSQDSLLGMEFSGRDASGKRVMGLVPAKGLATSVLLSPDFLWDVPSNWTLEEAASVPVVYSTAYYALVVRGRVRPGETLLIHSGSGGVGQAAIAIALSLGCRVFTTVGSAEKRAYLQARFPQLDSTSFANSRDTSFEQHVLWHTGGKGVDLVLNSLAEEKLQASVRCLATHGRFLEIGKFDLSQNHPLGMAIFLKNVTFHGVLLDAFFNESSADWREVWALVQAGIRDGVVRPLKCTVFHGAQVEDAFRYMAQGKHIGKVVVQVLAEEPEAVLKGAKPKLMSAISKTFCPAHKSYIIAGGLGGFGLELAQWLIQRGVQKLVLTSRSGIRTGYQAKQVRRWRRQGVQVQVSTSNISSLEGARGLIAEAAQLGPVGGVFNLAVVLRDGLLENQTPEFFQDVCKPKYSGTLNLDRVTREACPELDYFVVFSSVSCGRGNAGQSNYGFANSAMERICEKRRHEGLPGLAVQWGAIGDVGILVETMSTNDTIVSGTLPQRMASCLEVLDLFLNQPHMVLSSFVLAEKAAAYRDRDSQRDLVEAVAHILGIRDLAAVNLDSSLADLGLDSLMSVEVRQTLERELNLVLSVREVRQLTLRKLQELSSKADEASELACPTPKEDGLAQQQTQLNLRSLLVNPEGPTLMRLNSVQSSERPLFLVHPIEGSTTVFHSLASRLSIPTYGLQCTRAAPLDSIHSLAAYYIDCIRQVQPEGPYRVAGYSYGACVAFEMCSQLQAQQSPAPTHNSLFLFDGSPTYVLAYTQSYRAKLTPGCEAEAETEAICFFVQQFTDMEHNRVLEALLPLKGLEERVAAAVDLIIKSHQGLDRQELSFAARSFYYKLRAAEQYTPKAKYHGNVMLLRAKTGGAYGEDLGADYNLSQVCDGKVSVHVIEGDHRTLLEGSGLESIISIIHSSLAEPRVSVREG

Beta-galactosidase = Beta-galactosidase (Escherichia coli, UniProt Q8VNN2); assay: beta-galactosidase enzyme inhibitors and activators, dose response, artefact control for CCR6 antagonist project, biochemical, E. coli enzyme, set 3 (AID 504712); assay type: functional
Fatty acid synthase [15] = molecular target: T6, Fatty acid synthase; assay: FAS thioesterase domain inhibitors, dose response, biochemical, kinetic fluorescence intensity (AID 624326); assay type: functional;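 note: rate of fluorescence rise from hydrolysis of a fluorogenic O-methyl fluorescein ester substrate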
[16] = molecular target: T7, Probable nicotinate-nucleotide adenylyltransferase (Staphylococcus aureus (strain N315), UniProt P65502); assay type: functional, Staphylococcus aureus subsp. aureus N315;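 for IC50 Mean: confirmatory dose-response retesting of NadD inhibitor hits first found in an ultra-high-throughput screen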
T7 sequence (P65502 whole entry): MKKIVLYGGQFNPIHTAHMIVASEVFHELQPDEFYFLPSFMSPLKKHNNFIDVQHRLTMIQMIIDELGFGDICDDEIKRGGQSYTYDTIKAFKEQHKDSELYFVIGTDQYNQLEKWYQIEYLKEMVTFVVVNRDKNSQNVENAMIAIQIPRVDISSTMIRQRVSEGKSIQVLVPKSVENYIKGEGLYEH

[17] = molecular target: T7, Probable nicotinate-nucleotide adenylyltransferase; assay type: functional, Staphylococcus aureus subsp. aureus N315; conditions: read-out: IC50_Mean
Streptococcus = assay: Group A Streptococcus viability loss, dose response, counter-screen for streptokinase expression inhibitor project, luminescence, BacTiterGlo (AID 1915); assay type: functional, organism-based;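 note: potency for reduction of bacterial viability or growth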
[18] = tested on: Streptococcus sp. 'group A'; assay: growth inhibition of control SK(-) GAS strain, dose response, counter-screen for streptokinase expression inhibitor project, luminescence, kanamycin, BacTiterGlo, confirmation (AID 1900); assay type: functional, organism-based
Cytochrome P450 1A2 = molecular target: T8, Cytochrome P450 1A2 (Homo sapiens, UniProt P05177);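 note: PubChem cytochrome P450 panel assay, CYP1A2 panel member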
T8 sequence (P05177 whole entry): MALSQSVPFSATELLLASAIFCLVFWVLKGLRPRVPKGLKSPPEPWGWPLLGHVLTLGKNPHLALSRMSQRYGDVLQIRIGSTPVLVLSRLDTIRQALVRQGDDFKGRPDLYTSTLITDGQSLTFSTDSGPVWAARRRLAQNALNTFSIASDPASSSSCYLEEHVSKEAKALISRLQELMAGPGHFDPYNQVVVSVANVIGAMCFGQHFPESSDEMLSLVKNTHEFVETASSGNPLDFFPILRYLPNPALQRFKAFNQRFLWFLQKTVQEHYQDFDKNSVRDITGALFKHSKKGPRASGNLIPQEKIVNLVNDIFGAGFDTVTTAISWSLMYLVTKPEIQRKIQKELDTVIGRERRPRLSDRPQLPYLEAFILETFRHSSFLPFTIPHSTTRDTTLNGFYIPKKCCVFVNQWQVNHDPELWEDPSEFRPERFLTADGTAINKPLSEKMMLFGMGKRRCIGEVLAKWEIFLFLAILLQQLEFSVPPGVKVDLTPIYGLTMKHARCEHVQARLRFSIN

Cytochrome P450 2D6 = Cytochrome P450 2D6 (Homo sapiens, UniProt P10635);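 note: CYP2D6 member of a cytochrome P450 panel assay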
[19] = molecular target: Intestinal-type alkaline phosphatase (Homo sapiens, UniProt P09923); assay: human intestinal alkaline phosphatase activators, dose response, biochemical, luminescence, uHTS hits (AID 463120); assay type: functional
Cytochrome P450 2C19 = Cytochrome P450 2C19 (Homo sapiens, UniProt P33261); assay: Cytochrome panel assay with activity outcomes. Panel member name: p450-cyp2c19 Compounds with AC50 equal or less than 10 uM are considered active; assay type: functional
[20] = molecular target: Peroxisome proliferator-activated receptor gamma/Nuclear receptor coactivator 2 (Homo sapiens, UniProt P37231); assay: (§1) TR-FRET dose response biochemical High Throughput Screening assay for agonists of the steroid receptor coactivator 2 (SRC-2) recruitment by the peroxisome proliferator-activated receptor gamma (PPAR gamma): non-selective agonists. [Related pubchem assays: 1297, 1032 ]; assay type: functional
[21] = molecular target: Peroxisome proliferator-activated receptor gamma/Nuclear receptor coactivator 1 (Homo sapiens, UniProt P37231); assay: as §1, with “1 (SRC-1)” for “2 (SRC-2)”, “assays (depositor defined):AID1300, AID1808, AID504735, AID631]” for “assays: 1297, 1032 ]”; assay type: protein assay
[22] = molecular target: Peroxisome proliferator-activated receptor gamma/Nuclear receptor coactivator 3 (Homo sapiens, UniProt P37231); assay: as §1, with “3 (SRC-3)” for “2 (SRC-2)”, “1301 (Confirmation screen.), 1048 (Primary screen.)]” for “1297, 1032 ]”; assay type: functional
[23] = molecular target: T1, G-protein coupled receptor 35; assay: SAR analysis of Antagonists of the GPR35 Receptor using an Image-Based Assay - Set 6. [Related pubchem assays (depositor defined):AID2013, AID2026]; assay type: functional
Cannabinoid receptor 2 [24] = molecular target: T4, Cannabinoid receptor 2; assay: SAR analysis of agonists of the Cannabinoid Receptor 2 using an Image-Based Assay - Set 3. [Related pubchem assays (depositor defined):AID2013, AID2026]; assay type: functional
[25] = molecular target: T2, G-protein coupled receptor 55; assay: SAR Analysis of Selective Antagonists of GPR55 using an Image-Based Assay - Set 4. [Related pubchem assays (depositor defined):AID2013, AID2026]; assay type: functional
Cannabinoid receptor 2 [26] = molecular target: T4, Cannabinoid receptor 2; assay: SAR analysis of antagonists of the Cannabinoid Receptor 2 using an Image-Based Assay - Set 3. [Related pubchem assays (depositor defined):AID2013, AID2026]; assay type: functional
Cannabinoid receptor 1 [27] = molecular target: T5, Cannabinoid receptor 1; assay: SAR analysis of antagonists of the Cannabinoid Receptor 1 using an Image-Based Assay - Set 4. [Related pubchem assays (depositor defined):AID2013, AID2026]; assay type: functional
Cannabinoid receptor 1 [28] = molecular target: T5, Cannabinoid receptor 1; assay: SAR analysis of agonists of the Cannabinoid Receptor 1 using an Image-Based Assay - Set 4. [Related pubchem assays (depositor defined):AID2013, AID2026]; assay type: functional
[29] = molecular target: T1, G-protein coupled receptor 35; assay: SAR analysis of Agonists of the GPR35 Receptor using an Image-Based Assay - Set 4. [Related pubchem assays (depositor defined):AID2013, AID2026]; assay type: functional

Chain of Hexokinase (Q38C41 whole entry): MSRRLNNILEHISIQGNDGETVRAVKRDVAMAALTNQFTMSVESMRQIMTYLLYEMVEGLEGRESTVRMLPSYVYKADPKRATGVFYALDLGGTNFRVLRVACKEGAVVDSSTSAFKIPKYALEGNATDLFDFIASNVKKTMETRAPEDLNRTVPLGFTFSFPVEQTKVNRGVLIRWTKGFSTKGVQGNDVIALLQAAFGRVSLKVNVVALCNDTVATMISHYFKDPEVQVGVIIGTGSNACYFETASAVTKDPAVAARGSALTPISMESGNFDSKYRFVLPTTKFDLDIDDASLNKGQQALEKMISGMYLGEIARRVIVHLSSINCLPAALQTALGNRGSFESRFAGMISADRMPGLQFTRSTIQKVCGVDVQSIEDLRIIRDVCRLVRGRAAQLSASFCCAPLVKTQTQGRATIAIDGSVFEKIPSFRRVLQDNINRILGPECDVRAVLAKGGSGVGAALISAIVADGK

For `O=C1CCN(C(=O)Nc2cc(Cl)ccc2C(=O)O)CC1`, the IC50 (Hexokinase) was > 25 µM (inactive).

With `COc1ccc(CNCCC(c2ccc(F)cc2)c2ccc(OC)cc2)cc1` (configuration not stated) the EC50 [1] was 23.1 µM (inactive), the IC50 [2] was 1.78 µM (active) and the AC50 [3] was 9.89 µM (active). The IC50 [4] was 1.69 µM (active), the EC50 (Cannabinoid receptor 2 [5]) was > 32 µM (inactive) and the IC50 (Cannabinoid receptor 2 [6]) was 24.2 µM (inactive). The IC50 [7] was > 32 µM (inactive), the IC50 (Cannabinoid receptor 1 [8]) was 2.7 µM (active) and the AC50 (A-375) was 16.3 µM (active). For the same molecule, the EC50 (Cannabinoid receptor 1 [9]) was > 32 µM (inactive).

With `COc1cc(NC(=O)COc2ccccc2[N+](=O)[O-])ccc1NC(=O)c1cccs1` the AC50 [3] was 10.1 µM (active), the “Absolute IC50 (CHOP)” value [10] was 10 µM and the EC50 (Melanocortin receptor 4) was > 89.2 µM (inactive).

With `CC(C)(C)CCN1CCC[C@@H](NC(=O)c2cc(Cl)cc(Cl)c2)C1` the EC50 [11] was 10 µM (active).

In the case of `O=C(N/N=C\c1ccc(Cl)s1)C1COc2ccccc2O1` (configuration not stated), the CC50 [12] is reported as 16.3 µM (active), the IC50 (cells) is reported as 5.63 µM (active) and the CC50 [13] is reported as 19.4 µM (active).

In the case of `Cc1nn2c(O)cc(-c3ccc([N+](=O)[O-])cc3)nc2c1-c1ccccc1`, the Ki (fMet-Leu-Phe receptor) is reported as > 66.7 µM (inactive), the IC50 (Genome polyprotein) is reported as 36.5 µM (active) and the CC50 (Vero) is reported as 29.6 µM (active). For the same molecule, the IC50 (Fatty acid synthase [14]) was 11.2 µM (active), the IC50 (Beta-galactosidase) was > 66.6 µM (inactive) and the IC50 (Fatty acid synthase [15]) was 6.29 µM (active). For the same molecule, the IC50 [16] was 8.02 µM (active), the IC50 [17] was 30.2 µM (active) and the EC50 (Streptococcus) was 1.44 µM (active). For the same molecule, the EC50 [18] was 0.662 µM (active).

With `COc1ccc(C(=O)Nc2cccc3c2C(=O)NC3=O)cc1S(=O)(=O)N1CCOCC1` the AC50 (Cytochrome P450 1A2) was 1 µM (inconclusive), the AC50 (Cytochrome P450 2D6) was “inconclusive” and the EC50 [19] was > 100 µM (inactive). For the same molecule, the AC50 (Cytochrome P450 2C19) was “inconclusive”.

In the case of `COc1ccc2c(c1)nc(SCC(=O)c1ccc(Br)s1)n2C`, the EC50 [20] is reported as 27.7 µM (not active), the EC50 [21] is reported as > 79.4 µM (inactive) and the EC50 [22] is reported as > 79.4 µM (not active).

With `Cc1ccc(-c2nnc(C)c3nn(-c4ccc(C)cc4)cc23)cc1` the IC50 [23] was 15.4 µM (inactive), the EC50 (Cannabinoid receptor 2 [24]) was > 32 µM (inactive) and the IC50 [25] was > 32 µM (inactive). The IC50 (Cannabinoid receptor 2 [26]) was > 18 µM (inactive), the IC50 (Cannabinoid receptor 1 [27]) was 2.59 µM (active) and the EC50 (Cannabinoid receptor 1 [28]) was > 32 µM (inactive). For the same molecule, the EC50 [29] was > 32 µM (inactive).
